From patent US10130617B2, “Chemical compounds” (AstraZeneca AB, priority 2013, dated 2018)

Test system: HCC1428 LTED cells
Assay: HCC1428 Long Term Estrogen Deprived (HCC1428 LTED) Xenograft Efficacy Study
Assay type: in vivo, NSG mice
Conditions: 25 mg/kg once daily p.o., after 28 days of dosing
Experimental: HCC1428 Long Term Estrogen Deprived (HCC1428 LTED) Xenograft Efficacy Study
After a suitable period of cell culture, HCC1428 LTED cells (1×10^6) were implanted subcutaneously in the hind flank of female immuno-compromised NSG mice (Jackson Labs, USA) that had undergone overectomy. Tumours were measured twice weekly and changes in tumour volume and growth inhibition were determined by bilateral Vernier calliper measurement (length×width) where length was taken to be the longest diameter across the tumour and width the corresponding perpendicular. Tumour volume was calculated using the formula (length×width)×√(length×width)×(π/6). Tumours were measured once weekly after cell implantation until the average size reached 150 mm^3 at which point the mice were placed into randomised test groups, each group containing 10 mice. Treatment with compounds began the day after (day 62 in this study) and once weekly tumour measurement continued. […] Another group of animals was dosed with vehicle p.o. to act as a control.

SMILES: C[C@@H]1Cc2c([nH]c3ccccc23)[C@@H](c2c(F)cc(/C=C/C(=O)O)cc2F)N1CC(C)(C)F [Example 1, (E)-3-(3,5-Difluoro-4-((1R,3R)-2-(2-fluoro-2-methylpropyl)-3-methyl-2,3,4,9-tetrahydro-1H-pyrido[3,4-b]indol-1-yl)phenyl)acrylic acid]
- decrease in tumour size (geometric mean values, control grew by 220 mm^3): 46 mm^3
- inhibition of tumour growth (P<0.001 by unpaired t-test): 121%
